± gives the standard deviation of the averaged measurements.
Tests used:
Details in all cases: 72 h
Caco-2 [1] = experiment: cell viability relative to DMSO; higher = less toxic
Calu-3 [2] = experiment: as above
HepG2 [3] = experiment: as above
U2OS [4] = experiment: as above
Vero E6 [5] = experiment: as above
Caco-2 [6] = experiment: relative viability EC50 (midpoint between 100% and the lowest measured viability); higher = less toxic
Calu-3 [7] = experiment: as above
HepG2 [8] = experiment: as above
U2OS [9] = experiment: as above
Vero E6 [10] = experiment: as above
Caco-2 [11] = experiment: drug sensitivity score (DSS) for viability; higher = more toxic; extreme values may be limits of the assay
Calu-3 [12] = experiment: as above
HepG2 [13] = experiment: as above
U2OS [14] = experiment: as above
Vero E6 [15] = experiment: as above

Compound | cell viability (Caco-2 [1]; 1 nM) | cell viability (Caco-2 [1]; 10 nM) | cell viability (Caco-2 [1]; 100 nM) | cell viability (Caco-2 [1]; 1000 nM) | cell viability (Caco-2 [1]; 10000 nM) | cell viability (Calu-3 [2]; 1 nM) | cell viability (Calu-3 [2]; 10 nM) | cell viability (Calu-3 [2]; 100 nM) | cell viability (Calu-3 [2]; 1000 nM) | cell viability (Calu-3 [2]; 10000 nM) | cell viability (HepG2 [3]; 1 nM) | cell viability (HepG2 [3]; 10 nM) | cell viability (HepG2 [3]; 100 nM) | cell viability (HepG2 [3]; 1000 nM) | cell viability (HepG2 [3]; 10000 nM) | cell viability (U2OS [4]; 1 nM) | cell viability (U2OS [4]; 10 nM) | cell viability (U2OS [4]; 100 nM) | cell viability (U2OS [4]; 1000 nM) | cell viability (U2OS [4]; 10000 nM) | cell viability (Vero E6 [5]; 1 nM) | cell viability (Vero E6 [5]; 10 nM) | cell viability (Vero E6 [5]; 100 nM) | cell viability (Vero E6 [5]; 1000 nM) | cell viability (Vero E6 [5]; 10000 nM) | relative viability EC50 (Caco-2 [6]) | relative viability EC50 (Calu-3 [7]) | relative viability EC50 (HepG2 [8]) | relative viability EC50 (U2OS [9]) | relative viability EC50 (Vero E6 [10]) | drug sensitivity score (Caco-2 [11]) | drug sensitivity score (Calu-3 [12]) | drug sensitivity score (HepG2 [13]) | drug sensitivity score (U2OS [14]) | drug sensitivity score (Vero E6 [15])
C[C@@H]1CCN(C(=O)CC#N)C[C@@H]1N(C)c1ncnc2[nH]ccc12 | 102% | 103% | 94.4% | 96.9% | 104% | 96.3% | 97.5% | 106% | 112% | 110% | 111% | 94.4% | 105% | 97.7% | 108% | 101% | 103% | 101% | 103% | 96.9% | 98.6% | 94.8% | 97% | 98.3% | 96.1% | > 10 µM | > 10 µM | > 10 µM | > 10 µM | > 10 µM | 0 | 0 | 0 | 0 | 0
C[C@@H]1C[C@H]2[C@@H]3C[C@H](F)C4=CC(=O)C=C[C@]4(C)[C@@]3(Cl)[C@@H](O)C[C@]2(C)[C@H]1C(=O)COC(=O)C(C)(C)C [clocortolone-pivalate] | 90.6% | 99.2% | 91% | 100% | 112% | 92.9% | 88.2% | 102% | 96.2% | 97.3% | 98.8% | 93.6% | 99.1% | 103% | 108% | 95.7% | 93% | 90.1% | 90.7% | 93.4% | 101% | 90.6% | 99.6% | 95.4% | 110% | > 10 µM | > 10 µM | > 10 µM | > 10 µM | > 10 µM | 0 | 0 | 0 | 0 | 0
Fc1ccc(Cl)cc1-c1nc(Nc2ccncc2)c2nccnc2n1 [SD-208] | 108% | 102% | 104% | 93.4% | 93.2% | 107% | 94.9% | 111% | 105% | 103% | 107% | 107% | 103% | 95.6% | 98.2% | 103% | 101% | 96.5% | 90.1% | 91.2% | 102% | 103% | 106% | 96.5% | 86.2% | > 10 µM | > 10 µM | > 10 µM | > 10 µM | > 10 µM | 0 | 0 | 0 | 0 | 0.4
CN1CC[C@@]2(C)c3cc(O)ccc3N(C)[C@@H]12 [eseroline-(-)] | 103% | 97.9% | 105% | 89.6% | 77.5% | 101% | 101% | 99.1% | 112% | 84.6% | 98.2% | 103% | 110% | 109% | 83.7% | 106% | 105% | 99.1% | 101% | 96.4% | 96.3% | 97.9% | 96.1% | 94.2% | 96% | > 10 µM | > 10 µM | > 10 µM | > 10 µM | > 10 µM | 1.9 | 0.1 | 0.2 | 0 | 0
CCCCCCCCN=c1ccn(CCCCCCCCCCn2ccc(=NCCCCCCCC)cc2)cc1 [octenidine] | 98.7% | 97.5% | 101% | 78% | 1% | 106% | 101% | 98.6% | 98.6% | 0.7% | 89.6% | 93.4% | 102% | 65.6% | 2.6% | 95.5% | 104% | 95.4% | 89.9% | 2.7% | 96.8% | 94.7% | 92.5% | 83.7% | 0.1% | 1.65 µM | 3.07 µM | 1.27 µM | 2.31 µM | 1.91 µM | 8.9 | 5.7 | 10.2 | 7 | 8.2
COc1ccc2[nH]c([S+]([O-])Cc3ncc(C)c(OC)c3C)nc2c1 (stereo not given) [omeprazole] | 104% | 92.2% | 103% | 99% | 95% | 115% | 94.3% | 103% | 104% | 113% | 102% | 96.6% | 99.4% | 99.5% | 97% | 106% | 98.4% | 101% | 104% | 98.6% | 98.5% | 106% | 102% | 107% | 103% | > 10 µM | > 10 µM | > 10 µM | > 10 µM | > 10 µM | 0 | 0 | 0 | 0 | 0
Cc1c(CN(C)C(=O)/C=C/c2cnc3c(c2)CCC(=O)N3)oc2ccccc12 [AFN-1252] | 95% | 93.1% | 99% | 101% | 97.1% | 103% | 98.5% | 102% | 108% | 98.1% | 110% | 92.6% | 106% | 90.2% | 110% | 97.9% | 101% | 98.5% | 101% | 102% | 94.2% | 87.9% | 93.6% | 91.3% | 97.7% | > 10 µM | > 10 µM | > 10 µM | > 10 µM | > 10 µM | 0 | 0 | 0 | 0 | 0
Fc1ccc2c(CCNCc3cccc(OCC(F)(F)C(F)F)c3)c[nH]c2c1 [idalopirdine] | 96.3% | 97.5% | 91.5% | 87.1% | 109% | 90.3% | 102% | 91.4% | 101% | 99.7% | 97.5% | 93.7% | 99.2% | 94.8% | 88.2% | 95.3% | 97% | 99.7% | 95.4% | 96.7% | 101% | 95.2% | 98.7% | 95.2% | 84.9% | > 10 µM | > 10 µM | > 10 µM | > 10 µM | > 10 µM | 0 | 0 | 0 | 0 | 0.5
O=[N+]([O-])c1cc(Cl)ccc1S(=O)(=O)c1ccccc1 [BTB1] | 95.8% | 90.2% | 97.5% | 98.6% | 100% | 97.1% | 98.2% | 107% | 103% | 115% | 99.2% | 103% | 82.7% | 88.1% | 108% | 98.5% | 95.4% | 102% | 103% | 102% | 97% | 94.4% | 93.9% | 97.9% | 101% | > 10 µM | > 10 µM | > 10 µM | > 10 µM | > 10 µM | 0 | 0 | 0 | 0 | 0
CCN1CCN(Cc2ccc(-c3cc4c(N[C@H](C)c5ccccc5)ncnc4[nH]3)cc2)CC1 [AEE788] | 89.5% | 91.9% | 94.8% | 81.9% | 78% | 100% | 103% | 84.9% | 38.1% | 3.7% | 109% | 95.4% | 98.1% | 110% | 82.5% | 98.7% | 95.7% | 97.8% | 86.7% | 44.7% | 97.6% | 94.7% | 82.2% | 54.4% | 27.1% | > 10 µM | 0.548 µM | > 10 µM | 1.58 µM | 0.435 µM | 2.4 | 13.7 | 0.2 | 5.1 | 10.9
CC1(C)CN2C(CS/C(=N\C3CCCCC3)NC3CCCCC3)=CSC2=N1 [IT1t] | 91.6% | 87.6% | 99.5% | 94.8% | 82% | 96.4% | 116% | 100% | 89.7% | 75.4% | 96.7% | 102% | 96.7% | 102% | 88.8% | 97.1% | 95.8% | 102% | 97.5% | 88.8% | 94.5% | 95.7% | 92.1% | 99.4% | 96.9% | > 10 µM | > 10 µM | > 10 µM | > 10 µM | > 10 µM | 0 | 2.2 | 0 | 0.1 | 0
C[C@H]1c2cccc(O)c2C(=O)C2=C(O)[C@]3(O)C(=O)C(C(N)=O)=C(O)[C@@H](N(C)C)[C@@H]3[C@@H](O)[C@@H]21 [doxycycline] | 90.2 ± 11% | 96.8 ± 0.85% | 92.6 ± 3.1% | 90.1 ± 5.4% | 88 ± 0.92% | 95.8 ± 5.4% | 108 ± 3.1% | 107 ± 3.3% | 104 ± 2.9% | 99.8 ± 8% | 100 ± 2.8% | 94.3 ± 5.3% | 98.7 ± 9.5% | 108 ± 21% | 94.8 ± 4.3% | 96.5 ± 1.9% | 98.8 ± 1.1% | 96.2 ± 2% | 101 ± 2.3% | 98.6 ± 4% | 101 ± 2.9% | 95.8 ± 4.3% | 101 ± 4.5% | 97.8 ± 9.4% | 100 ± 1.8% | > 10 µM | > 10 µM | > 10 µM | > 10 µM | > 10 µM | 0.05 ± 0.071 | 0 | 0 | 0 | 0
CCN(CC)CCNC(=O)c1cc(Br)c(N)cc1OC [bromopride] | 89.7% | 96.1% | 97.4% | 94.6% | 102% | 102% | 99% | 95.8% | 104% | 111% | 94.6% | 102% | 99% | 105% | 101% | 101% | 99.1% | 105% | 99.4% | 101% | 95.9% | 100% | 92.9% | 99.8% | 104% | > 10 µM | > 10 µM | > 10 µM | > 10 µM | > 10 µM | 0 | 0 | 0 | 0 | 0
Cc1[nH]c(/C=C2\C(=O)Nc3ccccc32)c(C)c1CCC(=O)O [orantinib] | 101% | 96.9% | 102% | 104% | 97.5% | 98.8% | 104% | 107% | 106% | 99.2% | 98.3% | 103% | 106% | 98.7% | 100% | 98.1% | 94.3% | 101% | 99.1% | 98.4% | 107% | 103% | 103% | 96.2% | 98.1% | > 10 µM | > 10 µM | > 10 µM | > 10 µM | > 10 µM | 0 | 0 | 0 | 0 | 0

Reference: the supplement of paper PMC13380429
